Assay results as given in ChEMBL document CHEMBL4321812, “Structure-based rational design of staurosporine-based fluorescent probe with broad-ranging kinase affinity for kinase panel application” (Bioorg Med Chem Lett, 2019).

What was measured:
[1] = biological target: Calcium/calmodulin-dependent protein kinase type II subunit delta (Homo sapiens, UniProt Q13557); test: Binding affinity to recombinant human full-length N-terminal GST-tagged CAMK2D expressed in baculovirus expression system using GS peptide as substrate incubated for 1 hr by TR-FRET assay
[2] = biological target: Serine/threonine-protein kinase PAK 4 (Homo sapiens, UniProt O96013); test: Binding affinity to recombinant human full-length N-terminal GST-tagged PAK4 expressed in baculovirus expression system using SGKtide as substrate incubated for 1 hr by TR-FRET assay
[3] = biological target: Serine/threonine-protein kinase TAO1 (Homo sapiens, UniProt Q7L7X3); test: Binding affinity to recombinant full-length N-terminal His-FLAG-GST-tagged TAOK1 (unknown origin) (1 to 314 residues) expressed in baculovirus infected Sf9 insect cells incubated for 1 hr by TR-FRET assay
[4] = biological target: Interleukin-1 receptor-associated kinase 1 (Homo sapiens, UniProt P51617); test: Binding affinity to recombinant N-terminal His-FLAG-GST-tagged IRAK1 (unknown origin) (194 to 712 residues) expressed in baculovirus infected Sf9 insect cells incubated for 1 hr by TR-FRET assay
[5] = biological target: Myotonin-protein kinase (Homo sapiens, UniProt Q09013); test: Binding affinity to recombinant full-length N-terminal His-FLAG-GST-tagged DMPK (unknown origin) expressed in baculovirus infected Sf9 insect cells incubated for 1 hr by TR-FRET assay
[6] = Binding affinity to recombinant human full-length N-terminal […] MKNK1 T334D mutant expressed in baculovirus expression system using RS peptide as substrate incubated for 1 hr by TR-FRET assay
[7] = biological target: Protein kinase C gamma type (Homo sapiens, UniProt P05129); test: Binding affinity to recombinant full-length N-terminal His-FLAG-tagged PRKCG (unknown origin) expressed in baculovirus infected Sf9 insect cells incubated for 1 hr by TR-FRET assay
[8] = biological target: Serine/threonine-protein kinase LATS2 (Homo sapiens, UniProt Q9NRM7); test: Binding affinity to recombinant full-length N-terminal His-FLAG-GST-tagged LATS2 (unknown origin) (553 to 1088 residues) expressed in baculovirus infected Sf9 insect cells incubated for 1 hr by TR-FRET assay
[9] = biological target: TGF-beta receptor type-2 (Homo sapiens, UniProt P37173); test: Binding affinity to recombinant N-terminal His-FLAG-GST-tagged TGFBR2 (unknown origin) (194 to 567 residues) expressed in baculovirus infected Sf9 insect cells incubated for 1 hr by TR-FRET assay
[10] = biological target: Death-associated protein kinase 2 (Homo sapiens, UniProt Q9UIK4); test: Binding affinity to recombinant full-length N-terminal His-FLAG-GST-tagged DAPK2 (unknown origin) expressed in baculovirus infected Sf9 insect cells incubated for 1 hr by TR-FRET assay
[11] = biological target: 5'-AMP-activated protein kinase catalytic subunit alpha-2 (Homo sapiens, UniProt P54646); test: Binding affinity to recombinant full-length N-terminal His-FLAG-GST-tagged PRKAA2 (unknown origin) (10 to 552 residues) expressed in baculovirus infected Sf9 insect cells incubated for 1 hr by TR-FRET assay
[12] = biological target: Maternal embryonic leucine zipper kinase (Homo sapiens, UniProt Q14680); test: Binding affinity to recombinant full-length N-terminal His-FLAG-GST-tagged MELK (unknown origin) (1 to 493 residues) expressed in baculovirus infected Sf9 insect cells incubated for 1 hr by TR-FRET assay
[13] = biological target: Death-associated protein kinase 1 (Homo sapiens, UniProt P53355); test: Binding affinity to recombinant full-length N-terminal His-FLAG-GST-tagged DAPK1 (unknown origin) (1 to 289 residues) expressed in baculovirus infected Sf9 insect cells incubated for 1 hr by TR-FRET assay
[14] = biological target: Mitogen-activated protein kinase kinase kinase kinase 5 (Homo sapiens, UniProt Q9Y4K4); test: Binding affinity to recombinant full-length N-terminal His-FLAG-GST-tagged MAP4K5 (unknown origin) expressed in baculovirus infected Sf9 insect cells incubated for 1 hr by TR-FRET assay
[15] = biological target: Serine/threonine-protein kinase D2 (Homo sapiens, UniProt Q9BZL6); test: Binding affinity to recombinant full-length N-terminal His-FLAG-tagged PRKD2 (unknown origin) expressed in baculovirus infected Sf9 insect cells incubated for 1 hr by TR-FRET assay
[16] = biological target: Focal adhesion kinase 1 (Homo sapiens, UniProt Q05397); test: Binding affinity to recombinant human full length N-terminal GST-tagged PTK2 expressed in baculovirus expression system incubated for 1 hr by TR-FRET assay
[17] = biological target: Aurora kinase A (Homo sapiens, UniProt O14965); test: Binding affinity to recombinant full-length N-terminal His-FLAG-GST-tagged AURKA (unknown origin) expressed in baculovirus infected Sf9 insect cells incubated for 1 hr by TR-FRET assay
[18] = biological target: Tyrosine-protein kinase Fyn (Homo sapiens, UniProt P06241); test: Binding affinity to recombinant full-length N-terminal His-FLAG-tagged FYN (unknown origin) expressed in baculovirus infected Sf9 insect cells incubated for 1 hr by TR-FRET assay
[19] = biological target: Serine/threonine-protein kinase 25 (Homo sapiens, UniProt O00506); test: Binding affinity to recombinant full-length N-terminal His-FLAG-GST-tagged STK25 (unknown origin) expressed in baculovirus infected Sf9 insect cells incubated for 1 hr by TR-FRET assay
[20] = biological target: Leukocyte tyrosine kinase receptor (Homo sapiens, UniProt P29376); test: Binding affinity to recombinant full-length N-terminal His-FLAG-GST-tagged LTK (unknown origin) (498 to 796 residues) expressed in baculovirus infected Sf9 insect cells incubated for 1 hr by TR-FRET assay
[21] = biological target: Rho-associated protein kinase 2 (Homo sapiens, UniProt O75116); test: Binding affinity to recombinant full-length N-terminal His-FLAG-GST-tagged ROCK2 (unknown origin) (1 to 553 residues) expressed in baculovirus infected Sf9 insect cells incubated for 1 hr by TR-FRET assay
[22] = biological target: Mitogen-activated protein kinase 15 (Homo sapiens, UniProt Q8TD08); test: Binding affinity to recombinant full-length N-terminal His-FLAG-GST-tagged MAPK15 (unknown origin) expressed in baculovirus infected Sf9 insect cells incubated for 1 hr by TR-FRET assay
[23] = biological target: Ribosomal protein S6 kinase alpha-2 (Homo sapiens, UniProt Q15349); test: Binding affinity to recombinant human full length N-terminal GST-tagged RPS6KA2 expressed in baculovirus expression system using S6K peptide as substrate incubated for 1 hr by TR-FRET assay
[24] = biological target: Calcium/calmodulin-dependent protein kinase kinase 2 (Homo sapiens, UniProt Q96RR4); test: Binding affinity to recombinant full-length N-terminal His-FLAG-GST-tagged CAMKK2 (unknown origin) expressed in baculovirus infected Sf9 insect cells incubated for 1 hr in presence of calmodulin by TR-FRET assay
[25] = biological target: Serine/threonine-protein kinase DCLK3 (Homo sapiens, UniProt Q9C098); test: Binding affinity to recombinant full-length N-terminal His-FLAG-tagged DCLK3 (unknown origin) expressed in baculovirus infected Sf9 insect cells incubated for 1 hr by TR-FRET assay

Calcium/calmodulin-dependent protein kinase kinase 2, sequence (Q96RR4 whole entry): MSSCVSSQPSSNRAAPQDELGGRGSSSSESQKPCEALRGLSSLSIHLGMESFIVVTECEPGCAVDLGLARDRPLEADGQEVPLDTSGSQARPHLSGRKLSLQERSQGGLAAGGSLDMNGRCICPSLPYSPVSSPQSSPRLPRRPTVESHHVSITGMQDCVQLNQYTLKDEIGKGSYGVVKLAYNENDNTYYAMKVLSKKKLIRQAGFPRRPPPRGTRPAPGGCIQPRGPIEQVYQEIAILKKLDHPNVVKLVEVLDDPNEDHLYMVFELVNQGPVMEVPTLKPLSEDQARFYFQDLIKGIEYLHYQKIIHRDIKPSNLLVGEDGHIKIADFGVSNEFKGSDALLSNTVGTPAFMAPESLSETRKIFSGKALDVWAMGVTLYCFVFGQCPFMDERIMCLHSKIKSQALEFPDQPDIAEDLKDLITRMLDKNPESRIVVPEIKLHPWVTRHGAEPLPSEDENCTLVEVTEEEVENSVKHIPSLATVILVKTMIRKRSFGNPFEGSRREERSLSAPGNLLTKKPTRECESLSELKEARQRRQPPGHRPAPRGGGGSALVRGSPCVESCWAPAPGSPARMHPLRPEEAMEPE
Interleukin-1 receptor-associated kinase 1, sequence (P51617 whole entry, the tested form may be a part): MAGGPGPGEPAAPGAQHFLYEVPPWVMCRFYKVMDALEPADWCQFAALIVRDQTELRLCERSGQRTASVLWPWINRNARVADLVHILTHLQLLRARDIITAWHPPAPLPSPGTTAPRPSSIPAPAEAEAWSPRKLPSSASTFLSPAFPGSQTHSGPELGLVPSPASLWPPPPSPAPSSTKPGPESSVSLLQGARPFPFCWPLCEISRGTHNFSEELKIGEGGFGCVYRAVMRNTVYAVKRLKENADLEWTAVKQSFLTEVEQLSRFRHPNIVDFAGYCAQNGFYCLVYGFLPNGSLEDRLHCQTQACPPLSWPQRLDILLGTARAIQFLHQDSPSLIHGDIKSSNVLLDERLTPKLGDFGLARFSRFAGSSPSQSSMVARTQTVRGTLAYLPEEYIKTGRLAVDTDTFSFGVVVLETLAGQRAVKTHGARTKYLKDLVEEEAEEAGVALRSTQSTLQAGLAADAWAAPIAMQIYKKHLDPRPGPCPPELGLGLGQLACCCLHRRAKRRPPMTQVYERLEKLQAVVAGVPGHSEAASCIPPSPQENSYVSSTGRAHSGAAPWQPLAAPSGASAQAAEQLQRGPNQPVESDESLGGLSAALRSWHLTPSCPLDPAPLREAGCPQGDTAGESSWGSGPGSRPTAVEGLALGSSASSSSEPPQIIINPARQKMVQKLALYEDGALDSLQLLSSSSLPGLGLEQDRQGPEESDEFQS
Death-associated protein kinase 1, sequence (P53355 whole entry, the tested form may be a part): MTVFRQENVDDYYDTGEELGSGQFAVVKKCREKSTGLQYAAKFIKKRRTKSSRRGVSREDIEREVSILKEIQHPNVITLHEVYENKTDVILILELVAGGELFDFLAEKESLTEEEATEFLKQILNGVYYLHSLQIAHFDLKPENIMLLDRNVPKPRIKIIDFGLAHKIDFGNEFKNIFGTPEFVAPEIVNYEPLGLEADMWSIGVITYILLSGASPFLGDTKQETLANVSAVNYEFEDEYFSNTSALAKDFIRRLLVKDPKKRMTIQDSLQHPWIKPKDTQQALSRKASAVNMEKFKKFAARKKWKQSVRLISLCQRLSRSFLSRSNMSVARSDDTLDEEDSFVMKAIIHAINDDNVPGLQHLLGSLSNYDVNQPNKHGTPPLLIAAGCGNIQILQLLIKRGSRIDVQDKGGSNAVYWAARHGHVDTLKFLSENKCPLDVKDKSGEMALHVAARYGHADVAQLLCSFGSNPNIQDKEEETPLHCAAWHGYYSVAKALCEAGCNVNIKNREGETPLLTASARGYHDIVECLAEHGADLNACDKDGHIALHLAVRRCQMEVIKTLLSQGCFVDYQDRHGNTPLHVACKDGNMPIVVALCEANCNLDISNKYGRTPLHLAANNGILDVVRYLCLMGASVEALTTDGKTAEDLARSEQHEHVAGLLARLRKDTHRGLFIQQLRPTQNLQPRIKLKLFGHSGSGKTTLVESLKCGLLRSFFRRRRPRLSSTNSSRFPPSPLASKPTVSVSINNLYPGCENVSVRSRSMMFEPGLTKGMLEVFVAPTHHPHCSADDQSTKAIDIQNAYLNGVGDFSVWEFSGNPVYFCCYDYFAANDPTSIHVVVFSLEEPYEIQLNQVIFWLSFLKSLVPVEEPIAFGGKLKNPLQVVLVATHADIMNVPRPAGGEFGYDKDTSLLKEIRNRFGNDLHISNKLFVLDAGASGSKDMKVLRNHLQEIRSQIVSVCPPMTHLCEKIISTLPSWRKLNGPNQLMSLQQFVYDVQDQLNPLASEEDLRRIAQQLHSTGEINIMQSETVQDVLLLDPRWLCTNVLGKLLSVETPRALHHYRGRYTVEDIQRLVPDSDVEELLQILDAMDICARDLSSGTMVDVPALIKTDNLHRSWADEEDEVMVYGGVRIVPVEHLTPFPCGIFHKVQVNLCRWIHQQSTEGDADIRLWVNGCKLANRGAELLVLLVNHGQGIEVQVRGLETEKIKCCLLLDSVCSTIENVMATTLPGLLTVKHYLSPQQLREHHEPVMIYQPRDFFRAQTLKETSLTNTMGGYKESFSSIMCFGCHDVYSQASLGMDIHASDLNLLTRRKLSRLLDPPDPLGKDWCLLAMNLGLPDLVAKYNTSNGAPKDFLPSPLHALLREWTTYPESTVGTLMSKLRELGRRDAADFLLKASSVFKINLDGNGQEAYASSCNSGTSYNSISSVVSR
Aurora kinase A, sequence (O14965 whole entry): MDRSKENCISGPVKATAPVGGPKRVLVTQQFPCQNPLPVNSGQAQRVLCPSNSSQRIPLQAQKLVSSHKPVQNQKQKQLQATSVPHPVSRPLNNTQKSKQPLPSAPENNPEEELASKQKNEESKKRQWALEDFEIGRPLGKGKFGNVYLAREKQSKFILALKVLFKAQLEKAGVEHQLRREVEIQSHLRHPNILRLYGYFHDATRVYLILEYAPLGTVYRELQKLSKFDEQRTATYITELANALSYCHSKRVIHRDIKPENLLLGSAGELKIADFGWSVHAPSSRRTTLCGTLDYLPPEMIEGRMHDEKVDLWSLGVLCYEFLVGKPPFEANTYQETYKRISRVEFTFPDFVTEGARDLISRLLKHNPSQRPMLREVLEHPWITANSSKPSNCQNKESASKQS
TGF-beta receptor type-2, sequence (P37173 whole entry, the tested form may be a part): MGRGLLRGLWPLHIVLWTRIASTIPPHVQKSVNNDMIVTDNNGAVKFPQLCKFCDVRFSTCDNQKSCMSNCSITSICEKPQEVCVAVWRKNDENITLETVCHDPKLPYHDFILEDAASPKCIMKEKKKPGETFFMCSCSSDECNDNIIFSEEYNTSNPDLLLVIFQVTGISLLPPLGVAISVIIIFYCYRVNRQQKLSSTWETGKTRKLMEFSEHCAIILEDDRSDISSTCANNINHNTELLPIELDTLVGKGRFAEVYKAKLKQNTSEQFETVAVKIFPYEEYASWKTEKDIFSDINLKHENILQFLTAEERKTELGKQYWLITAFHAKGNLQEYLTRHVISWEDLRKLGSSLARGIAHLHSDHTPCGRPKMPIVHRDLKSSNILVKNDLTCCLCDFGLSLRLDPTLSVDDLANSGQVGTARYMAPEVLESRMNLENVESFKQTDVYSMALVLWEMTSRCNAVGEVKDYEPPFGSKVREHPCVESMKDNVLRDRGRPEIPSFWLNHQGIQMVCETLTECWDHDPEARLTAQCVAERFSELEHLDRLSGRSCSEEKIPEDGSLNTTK
Serine/threonine-protein kinase 25, sequence (O00506 whole entry, the tested form may be a part): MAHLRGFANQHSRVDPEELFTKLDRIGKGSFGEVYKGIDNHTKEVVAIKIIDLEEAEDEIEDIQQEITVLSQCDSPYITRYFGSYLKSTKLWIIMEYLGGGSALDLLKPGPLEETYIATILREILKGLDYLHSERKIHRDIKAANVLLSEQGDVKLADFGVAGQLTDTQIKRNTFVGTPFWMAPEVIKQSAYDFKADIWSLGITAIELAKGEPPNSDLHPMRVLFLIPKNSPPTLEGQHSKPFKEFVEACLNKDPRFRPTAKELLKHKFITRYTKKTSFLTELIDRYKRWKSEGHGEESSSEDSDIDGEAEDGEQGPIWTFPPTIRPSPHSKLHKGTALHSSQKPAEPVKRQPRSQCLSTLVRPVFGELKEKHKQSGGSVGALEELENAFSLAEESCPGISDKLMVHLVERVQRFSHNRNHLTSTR

| Compound | Kd [1] | Kd [2] | Kd [3] | Kd [4] | Kd [5] | Kd [6] | Kd [7] | Kd [8] | Kd [9] | Kd [10] | Kd [11] | Kd [12] | Kd [13] | Kd [14] | Kd [15] | Kd [16] | Kd [17] | Kd [18] | Kd [19] | Kd [20] | also measured |
| --- | --- | --- | --- | --- | --- | --- | --- | --- | --- | --- | --- | --- | --- | --- | --- | --- | --- | --- | --- | --- | --- |
| CO[C@@H]1[C@H](NCCOCCOCCOCCNC(=O)CCC2=[N+]3C(=Cc4c(C)cc(C)n4[B-]3(F)F)C=C2)C[C@H]2O[C@]1(C)n1c3ccccc3c3c4c(c5c6ccccc6n2c5c31)C(=O)NC4 | 4 nM | 5 nM | 25 nM | 299 nM | 90 nM | 28 nM | 72 nM | 135 nM | 854 nM | 34 nM | 45 nM | 50 nM | 69 nM | 87 nM | 79 nM | 401 nM | 45 nM | 267 nM | 444 nM | 193 nM | Kd [21]: 23 nM; Kd [22]: 113 nM; Kd [23]: 8 nM; Kd [24]: 2 nM; Kd [25]: 60 nM |
| CO[C@@H]1[C@H](N(C)CCOCCOCCOCCNC(=O)CCC2=[N+]3C(=Cc4c(C)cc(C)n4[B-]3(F)F)C=C2)C[C@H]2O[C@]1(C)n1c3ccccc3c3c4c(c5c6ccccc6n2c5c31)C(=O)NC4 | 6 nM | 6 nM | 15 nM | 609 nM | 94 nM | 37 nM | 46 nM | 223 nM | > 2000 nM | 60 nM | 46 nM | 41 nM | 59 nM | 377 nM | 140 nM | 308 nM | 51 nM | 322 nM | 443 nM | 193 nM | Kd [21]: 16 nM; Kd [22]: 306 nM; Kd [23]: 4 nM; Kd [24]: 6 nM; Kd [25]: 104 nM |
